Source: patent US4154727A, “Dipeptide derivatives and their production” (Shionogi & Co., Ltd., priority 1974, dated 1979)

Assays:
[1] = system: DS male mice; experiment: Taming activity (inhibition of fighting responses); format: in vivo; details: given 60 minutes prior; inhibition of electroshock-induced fighting responses, 5 pairs of mice
Description: This test was measured on DS male mice. […] These pairs of mice were selected in the morning and used for drug test in the afternoon. The test compound was administered to both mice of the pairs 60 minutes prior to the experiment. Results were obtained as the mean percentage of inhibition of fighting responses in a group of 5 pairs and shown by ED50 [Tedeschi, et al.: J. Pharmacol Exp. Thev., 125, 28-34 (1959)].

[2] = system: DS male mice; experiment: Rotarod performance activity; format: in vivo; details: fall from rod (5 rotations per minute) within less than 2 minutes; 10 mice per dose
Description: (3) Rotarod performance activity
This test was measured on DS male mice. The mouse was put on a scraped rod of wood, 3 cm in diameter, turning at the rate of five rotations per minute. The mice that could remain on the rod for three or more minutes in successive trials were selected and placed in a group of 10 mice for each dose. If the mouse fell down from the rod within less than 2 minutes, the test compound was considered to be effective. Results were shown by ED50 [Dunham, et al.: J. Am. Pharm. Assoc., 46, 208 (1957)].

## CN(C(=O)CNC(=O)CN)c1ccc(Cl)cc1C(=O)c1ccccc1Cl.O [Compound No. 2, 2-o-chlorobenzoyl-4-chloro-N-methyl-N^α -glycyl-glycinanilide hydrate]
[1]
  Taming activity ED50: 3.0 mg/kg

## CN(C(=O)CNC(=O)CN)c1ccc(Cl)cc1C(=O)c1ccccc1F.Cl [Compound No. 3, 2-o-fluorobenzoyl-4-chloro-N-methyl-N^α -glycyl-glycinanilide hydrochloride]
[1]
  Taming activity ED50: 1.6 mg/kg
[2]
  Rotarod performance ED50: 17.0 mg/kg
